Assay [1] has as its target T1, AChE (EC 3.1.1.7, from electric eel) (Electrophorus electricus, UniProt O42275).
T1 construct: purchased Aladdin (Shanghai, China)
In words: In vitro AChE inhibitory activity assay (modified Ellman's method). The class given is biochemical. The conditions noted are these: tested at 100 μM, triplicate. Here is the method:
(§1) The inhibitory activities against AChE (EC 3.1.1.7) and BChE (EC 3.1.1.8) of the fungal samples and test compounds were analyzed following Ellman’s method ([Ellman et al., 1961]) with modifications. AChE (EC 3.1.1.7, from electric eel), BChE (EC 3.1.1.8, from equine serum), acetylthiocholine iodide (ATCI), butyrylthiocholine iodide (BTCI), and 5,5′-dithiobis (2-nitrobenzoic acid) (DTNB) were purchased from Aladdin (Shanghai, China). AChE and BChE solutions were prepared with water (0.2 units/ml). ATCI and BTCI solutions (10 mM) were prepared with deionized water before using. A DTNB solution (10 mM) was prepared in a 0.1 M, pH 8.0 solution of potassium dihydrogen phosphate (1.36 g, 10 mmol) in 100 ml of water (PBS). The fungal samples for screening were diluted to 1.0 mg/ml with methanol. The test compounds were dissolved in methanol (10 mM) as stock solutions. Subsequently, at least five different concentrations of each compound (double ratio dilution with methanol) were used to determine the half maximal inhibitory concentration (IC50). The tests were performed using 96-well plates. First, 160 μl of PBS, 2 μl of the test sample solution, 20 μl of AChE or BChE, and 10 μl of DTNB were added and mixed in each well, and then preincubated at 37°C for 10 min. After the addition of 10 μl of ATCI or BTCI, the reaction was initiated and incubated at 37°C for another 10 min. Then, the absorbance was measured at 412 nm. The wells with 2 μl of methanol replacing the test sample solution was used to determine 100% of the enzyme activity, and 20 μl of water replacing the enzyme solution was used to determine the blank value. All of the tests for each sample were performed in triplicate. The inhibition curve was fitted by plotting the inhibition rate vs. the logarithm of the test compound concentration. The IC50 values were calculated using Microsoft Excel software, and the data were expressed as the mean ± SD. The inhibition rate was calculated using the formula: IR% = [(Ac-As)]/[(Ac-Ab)] × 100%, where Ab denotes the absorbance of the blank control without the enzyme solution, Ac represents the absorbance of the control without the sample solution, and As denotes the absorbance of the sample.
For orientation: DTNB colorimetry detects thiols as they appear.

The target in assay [2] is T2, BChE (EC 3.1.1.8, from equine serum) (Equus caballus, UniProt P81908).
T2 construct: BChE (EC 3.1.1.8, from equine serum); purchased Aladdin (Shanghai, China); host or cells: equine serum
T2 sequence (P81908 whole entry): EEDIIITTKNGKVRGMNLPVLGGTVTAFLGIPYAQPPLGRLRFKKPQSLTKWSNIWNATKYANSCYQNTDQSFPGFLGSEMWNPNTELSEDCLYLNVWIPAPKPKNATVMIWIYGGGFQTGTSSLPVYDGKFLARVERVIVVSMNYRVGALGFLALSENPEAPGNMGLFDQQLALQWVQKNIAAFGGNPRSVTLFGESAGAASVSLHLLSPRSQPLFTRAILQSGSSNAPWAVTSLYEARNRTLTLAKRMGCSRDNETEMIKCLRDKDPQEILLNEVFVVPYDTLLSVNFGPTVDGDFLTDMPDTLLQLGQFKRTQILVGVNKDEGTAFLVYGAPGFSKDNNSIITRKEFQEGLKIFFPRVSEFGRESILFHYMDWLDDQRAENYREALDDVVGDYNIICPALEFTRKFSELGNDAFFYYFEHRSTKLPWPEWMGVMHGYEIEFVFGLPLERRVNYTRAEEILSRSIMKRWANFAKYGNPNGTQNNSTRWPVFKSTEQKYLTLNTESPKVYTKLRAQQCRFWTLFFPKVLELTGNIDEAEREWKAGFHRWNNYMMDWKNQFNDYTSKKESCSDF
In words: biochemical. It counts as biochemical. Conditions: for BChE IR, %: tested at 100 μM, triplicate. The protocol:
The fresh spore suspensions of SGP-1 and the seven other strains were inoculated into an Erlenmeyer flask (250 ml) containing 100 ml of liquid medium (glucose 2%, maltose 1%, mannitol 2%, glutamic acid 1%, peptone 0.5%, and yeast extract 0.3% in distilled water) and fermented at 28°C for 12 days on a rotary shaker at 200 rpm. To each fermentation broth was added 200 ml of ethyl acetate (EtOAc), and extraction was performed with the assistance of ultrasonication (40 kHz) for 30 min. The EtOAc solutions were removed in vacuo at 37°C to produce the EtOAc extracts. Each fungal EtOAc extract was dissolved in methanol at a concentration of 100.0 mg/ml, and was further diluted to a […] solution used for an in vitro BChE inhibitory activity assay. A sample of strain SGP-1 was analyzed using an HPLC-photo-diode array detector (PDAD)-UV with an analytical Kromasil C18 column (5 μm, 100 Å, 4.6 mm × 250 mm; Akzo Nobel) on an Agilent 1100 HPLC system equipped with a PDAD (G1316A). The extraction solution in methanol (100.0 mg/ml) was filtered with a 0.45-μm membrane, and then injected (20 μl) into the column, followed by elution with an MeOH-H2O linear gradient (20%→100% MeOH in 20 min followed by 5 min with isocratic 100% MeOH) mobile phase (flow rate 1 ml/min). During the separation procedure, the constituents of the emerging chromatographic peaks were collected in Eppendorf tubes with 2 s of delay. Each eluate was fixed to a volume of 200 μl, which was then used for the BChE inhibitory activity assay. The acquired PDAD data, including the UV spectra of peaks, were processed using Agilent OpenLAB software.
as §1

For assay [3], the target named is α-glucosidase. Conditions: earlier study quoted in discussion; no reference given; cited from earlier work.
In assay [4] the target is T2, BChE (EC 3.1.1.8, from equine serum). In words: Kinetic study of BChE inhibition (Lineweaver-Burk and secondary plots). It counts as biochemical. Here is the method:
Kinetic studies were performed using the same protocol as the BChE inhibitory activity assay, and the substrate BTCI was used in a series of concentrations, 0.2, 0.4, 0.5, 0.6, and 0.7 mM. The test compound concentrations were set according to the inhibition IC50 of each compound. The enzymatic reaction was extended to 15 min before the detection of the absorbance. Lineweaver–Burk plots were generated to obtain the kinetic parameters, Michaelis constant (Km) and maximum velocity (Vmax), according to which inhibition modes were determined.

Setting [5] is: sample concentration that led to 50% enzyme activity loss, mean ± SD, read-out: BChE IC50.
[6] abbreviates: BChE, competitive inhibition, secondary plot of K vs [I], read-out: Ki (inhibition constant).

The IC50 is the concentration at which inhibition is half-maximal. Usually Ki stands for a measure of affinity in units of concentration, obtained from inhibition or displacement.

Where two headings read alike, the source gives them in different places. A value given as a limit tells only on which side of the number the result lay.

T1 sequence (O42275 24-633): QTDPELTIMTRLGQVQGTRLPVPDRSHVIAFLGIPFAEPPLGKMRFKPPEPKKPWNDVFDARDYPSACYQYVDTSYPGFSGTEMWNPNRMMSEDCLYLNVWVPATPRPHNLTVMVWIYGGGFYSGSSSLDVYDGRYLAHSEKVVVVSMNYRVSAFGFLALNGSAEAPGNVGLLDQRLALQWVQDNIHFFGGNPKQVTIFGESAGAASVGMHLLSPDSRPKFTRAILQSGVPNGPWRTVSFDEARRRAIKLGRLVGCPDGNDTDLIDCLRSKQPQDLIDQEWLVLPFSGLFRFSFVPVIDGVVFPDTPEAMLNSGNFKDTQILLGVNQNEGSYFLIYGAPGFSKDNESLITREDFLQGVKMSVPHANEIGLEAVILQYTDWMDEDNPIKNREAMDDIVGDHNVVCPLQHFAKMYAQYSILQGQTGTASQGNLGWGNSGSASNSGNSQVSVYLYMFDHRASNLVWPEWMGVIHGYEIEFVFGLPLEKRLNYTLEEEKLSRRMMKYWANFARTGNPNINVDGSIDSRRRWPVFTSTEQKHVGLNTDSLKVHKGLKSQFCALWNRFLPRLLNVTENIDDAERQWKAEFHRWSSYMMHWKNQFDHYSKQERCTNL

With `CC1(C)CCc2cc(CC3OC(=O)C(O)=C3c3ccc(O)cc3)ccc2O1` (centres unmarked) [Compound 10, 5-[(3,4-dihydro-2,2-dimethyl-2H-1-benzopyran-6-yl)methyl]-3-hydroxy-4-(4-hydroxyphenyl)-2(5H)-furanone], the “AChE IR, %” value in assay [1] worked out at 23.2 ± 1.1%. In addition, in assay [2] (setting [5]), the IC50 is more than 100 µM. Moreover, the “BChE IR, %” value in assay [2] was found to be 33.3 ± 7.5%.

As to `COC(=O)C1(Cc2ccc(O)c(CC3OC3(C)C)c2)OC(=O)C(O)=C1c1ccc(O)cc1` (centres unmarked) [Compound 14, butyrolactone III], in assay [1], the “AChE IR, %” value is −4.2 ± 0.3%. Moreover, in assay [2], the IC50 was more than 100 µM and the “BChE IR, %” value was -12.3 ± 4.6%.

For the compound `COC(=O)C1(Cc2ccc(O)c(CCC(C)(C)O)c2)OC(=O)C(O)=C1c1ccc(O)cc1` (centres unmarked) [Compound 12, aspernolide B], the “AChE IR, %” value in assay [1] is listed as 2.2 ± 1.5%. The IC50 in assay [2] (setting [5]) is more than 100 µM. In assay [2], the “BChE IR, %” value is reported as 13.4 ± 1.3%.

For the compound `COC(=O)[C@@]1(O)OC(=O)C(Cc2ccc3c(c2)CCC(C)(C)O3)=C1c1ccc(O)cc1` [Compound 3, flavipesolide B], the “AChE IR, %” value in assay [1] was determined as 19.6 ± 4.2%. For the same compound, the half-maximal inhibitory concentration (IC50) in assay [2] (setting [5]) was more than 100 µM. In assay [2], the “BChE IR, %” value came out at 22.5 ± 3.1%.

For `CC(C)=CCc1cc(/C=C2\OC(=O)C(c3ccc(O)c(CC=C(C)C)c3)=C2O)ccc1O` [Aspulvinone H, aspulvinone H, reference compound], the “AChE IR, %” value in assay [1] amounted to 9.6 ± 3.4%. In assay [2] (setting [5]), the IC50 was more than 100 µM. Moreover, the “BChE IR, %” value in assay [2] is 6.5 ± 2.6%.

On to `COC(=O)[C@@]1(Cc2ccc(O)c(CC=C(C)C)c2)OC(=O)C(O)=C1c1ccc(O)cc1` [Compound 6, butyrolactone I], for which the IC50 in assay [3] was 1.52 µM; in assay [2] it was 35.5 ± 1.3 µM. In addition, in assay [1], the “AChE IR, %” value was −6.7 ± 3.6%. The compound further had a Ki in assay [4] of 19.3 µM. Also, the “BChE IR, %” value in assay [2] stood at 68.0 ± 4.1%.

For `COC(=O)C1(Cc2ccc(O)c(CC=C(C)C)c2)OC(=O)C(O)=C1c1ccccc1` (centres unmarked) [Compound 5, versicolactone B], in assay [1], the “AChE IR, %” value amounted to 10.4 ± 1.9%. In addition, the Ki in assay [4] (setting [6]) was found to be 38.2 µM. In addition, the IC50 in assay [2] (setting [5]) was found to be 44.3 ± 3.7 µM. Besides, the “BChE IR, %” value in assay [2] stood at 64.4 ± 3.2%.

For the compound `COC(=O)C1(Cc2ccc3c(c2)CCC(C)(C)O3)OC(=O)C(O)=C1c1ccc(O)cc1` (centres unmarked) [Compound 11, aspernolide A], the “AChE IR, %” value in assay [1] is recorded as −0.1 ± 0.7%. Besides, in assay [2] (setting [5]), the concentration for half-maximal inhibition (IC50) is more than 100 µM. The “BChE IR, %” value in assay [2] was determined as 25.4 ± 3.7%.

For `CCOC(=O)C1(Cc2ccc(O)c(CC=C(C)C)c2)OC(=O)C(O)=C1c1ccc(O)cc1` (centres unmarked) [Compound 7, butyrolactone VII], the “AChE IR, %” value in assay [1] was found to be 11.7 ± 1.4%. For the same compound, the Ki in assay [4] (setting [6]) was 12.3 µM. Besides, in assay [2] (setting [5]), the IC50 amounted to 18.4 ± 2.5 µM. The “BChE IR, %” value in assay [2] is recorded as 76.0 ± 3.5%.

With `COC(=O)C1(Cc2ccc(O)cc2)OC(=O)C(O)=C1c1ccc(O)cc1` (centres unmarked) [Compound 9, butyrolactone II], the “AChE IR, %” value in assay [1] was found to be 9.6 ± 0.5%. Also, in assay [2] (setting [5]), the IC50 was more than 100 µM. Also, in assay [2], the “BChE IR, %” value came out at 19.9 ± 6.0%.

Regarding `COC(=O)C1(O)OC(=O)C(Cc2ccc(O)c(CCC(C)(C)O)c2)=C1c1ccc(O)cc1` (centres unmarked) [Compound 2, methyl-2-hydroxy-4-(4-hydroxy-3-(3-hydroxy-3-methylbutyl)benzyl)-3-(4-hydroxyphenyl)-5-oxo-2,5-dihydrofuran-2-carboxylate], the “AChE IR, %” value in assay [1] is 7.7 ± 1.0%. Further, the IC50 in assay [2] (setting [5]) is more than 100 µM. The “BChE IR, %” value in assay [2] was 3.2 ± 3.6%.

`COC(=O)[C@@]1(O)OC(=O)C(Cc2ccc(O)c(CC=C(C)C)c2)=C1c1ccc(O)cc1` [Compound 4, butyrolactone VIII]: the “AChE IR, %” value in assay [1] stood at 11.9 ± 1.0%. In addition, the Ki in assay [4] (setting [6]) turned out to be 23.6 µM. Also, in assay [2] (setting [5]), the IC50 was determined as 45.8 ± 6.9 µM. Besides, in assay [2], the “BChE IR, %” value is 67.3 ± 2.8%.

Consider `COc1ccc2c3c1O[C@H]1C[C@@H](O)C=C[C@@]31CCN(C)C2` [Galantamine, reference compound], for which the “BChE IR, %” value in assay [2] was determined as 72.4 ± 1.2%; in assay [2] (listed as galantamine) it was 72.4%.

On to `CC(C)=CCc1cc(CC2OC(=O)C(O)=C2c2ccc(O)cc2)ccc1O` (centres unmarked) [Compound 8, 3-hydroxy-5-[[4-hydroxy-3-(3-methyl-2-buten-1-yl)phenyl]methyl]-4-(4-hydroxyphenyl)-2(5H)-furanone], for which, in assay [1], the “AChE IR, %” value is 14.2 ± 0.5%. Besides, in assay [4] (setting [6]), the Ki was determined as 35.7 µM. The IC50 in assay [2] (setting [5]) stood at 45.1 ± 7.2 µM. For the same compound, the “BChE IR, %” value in assay [2] stood at 60.9 ± 0.6%.

For `COC(=O)C1(Cc2ccc3c(c2)CC(C(C)(C)O)O3)OC(=O)C(O)=C1c1ccc(O)cc1` (centres unmarked) [Compound 15, butytolactone IV], the “AChE IR, %” value in assay [1] amounted to 13.3 ± 5.5%. Moreover, the IC50 in assay [2] (setting [5]) was more than 100 µM. In addition, the “BChE IR, %” value in assay [2] is 33.5 ± 2.3%.

Consider `COC(=O)C1(O)OC(=O)C(Cc2ccc(O)c(CCC(C)(C)OC)c2)=C1c1ccc(O)cc1` (centres unmarked) [Compound 1, methyl-2-hydroxy-4-(4-hydroxy-3-(3-methoxy-3-methylbutyl)benzyl)-3-(4-hydroxyphenyl)-5-oxo-2,5-dihydrofuran-2-carboxylate], for which, in assay [1], the “AChE IR, %” value is 11.2 ± 3.6%. The IC50 in assay [2] (setting [5]) is more than 100 µM. The “BChE IR, %” value in assay [2] was 15.6 ± 2.3%.

Consider `COC(=O)C1(Cc2ccc(O)c(CCC(C)(C)OC)c2)OC(=O)C(O)=C1c1ccc(O)cc1` (centres unmarked) [Compound 13, aspernolide C], for which, in assay [1], the “AChE IR, %” value is on record as 3.9 ± 0.9%. The IC50 in assay [2] (setting [5]) was more than 100 µM. Also, the “BChE IR, %” value in assay [2] is reported as 22.6 ± 5.3%.

The values above are taken from publication PMC9811682 (Frontiers in Chemistry, 2022).
